Test results: the NIST ThermoML archive (doi:10.1021/je200721d)
Numbers after ± are expanded uncertainties.

Assay: xn = mol fraction of the nth substance listed
Details: Liquid, Vibrating tube method

CCCCCCCC [octane] + CCCCCC
Details	mass density [kg/m3]
323.08 K, 13000 kPa, x2 = 0.1654	685.79 ± 0.36
323.08 K, 14000 kPa, x2 = 0.1654	686.73 ± 0.36
323.08 K, 15000 kPa, x2 = 0.1654	687.65 ± 0.37
323.08 K, 16000 kPa, x2 = 0.1654	688.56 ± 0.38
323.08 K, 17000 kPa, x2 = 0.1654	689.44 ± 0.39
323.08 K, 18000 kPa, x2 = 0.1654	690.32 ± 0.4
323.08 K, 19000 kPa, x2 = 0.1654	691.15 ± 0.41
323.08 K, 20000 kPa, x2 = 0.1654	691.98 ± 0.42
323.08 K, 21000 kPa, x2 = 0.1654	692.79 ± 0.43
323.08 K, 22000 kPa, x2 = 0.1654	693.57 ± 0.43
323.08 K, 23000 kPa, x2 = 0.1654	694.36 ± 0.44
323.08 K, 24000 kPa, x2 = 0.1654	695.11 ± 0.45
323.08 K, 25000 kPa, x2 = 0.1654	695.85 ± 0.46
323.09 K, 1000 kPa, x2 = 0.9308	638.41 ± 0.28
323.09 K, 2000 kPa, x2 = 0.9308	639.57 ± 0.28
323.09 K, 3000 kPa, x2 = 0.9308	640.76 ± 0.29
323.09 K, 4000 kPa, x2 = 0.9308	641.92 ± 0.3
323.09 K, 5000 kPa, x2 = 0.9308	643.1 ± 0.31
323.09 K, 6000 kPa, x2 = 0.9308	644.29 ± 0.32
323.09 K, 7000 kPa, x2 = 0.9308	645.46 ± 0.33
323.09 K, 8000 kPa, x2 = 0.9308	646.63 ± 0.34
323.09 K, 9000 kPa, x2 = 0.9308	647.79 ± 0.35
323.09 K, 10000 kPa, x2 = 0.9308	648.93 ± 0.36
323.09 K, 11000 kPa, x2 = 0.9308	650.05 ± 0.37
323.09 K, 12000 kPa, x2 = 0.9308	651.17 ± 0.38
323.09 K, 13000 kPa, x2 = 0.9308	652.26 ± 0.39
323.09 K, 14000 kPa, x2 = 0.9308	653.35 ± 0.4
323.09 K, 15000 kPa, x2 = 0.9308	654.41 ± 0.41
323.09 K, 16000 kPa, x2 = 0.9308	655.45 ± 0.42
323.09 K, 17000 kPa, x2 = 0.9308	656.47 ± 0.43
323.09 K, 18000 kPa, x2 = 0.9308	657.47 ± 0.44
323.09 K, 19000 kPa, x2 = 0.9308	658.44 ± 0.45
323.09 K, 20000 kPa, x2 = 0.9308	659.39 ± 0.46
323.09 K, 21000 kPa, x2 = 0.9308	660.32 ± 0.47
323.09 K, 22000 kPa, x2 = 0.9308	661.2 ± 0.48
323.09 K, 23000 kPa, x2 = 0.9308	662.07 ± 0.49
323.09 K, 24000 kPa, x2 = 0.9308	662.91 ± 0.5
323.09 K, 25000 kPa, x2 = 0.9308	663.72 ± 0.51
323.1 K, 1000 kPa, x2 = 0.7995	646.3 ± 0.27
323.1 K, 2000 kPa, x2 = 0.7995	647.41 ± 0.28
323.1 K, 3000 kPa, x2 = 0.7995	648.55 ± 0.29
323.1 K, 4000 kPa, x2 = 0.7995	649.72 ± 0.3
323.1 K, 5000 kPa, x2 = 0.7995	650.83 ± 0.31
323.1 K, 6000 kPa, x2 = 0.7995	651.95 ± 0.32
323.1 K, 7000 kPa, x2 = 0.7995	653.08 ± 0.32
323.1 K, 8000 kPa, x2 = 0.7995	654.18 ± 0.33
323.1 K, 9000 kPa, x2 = 0.7995	655.3 ± 0.34
323.1 K, 10000 kPa, x2 = 0.7995	656.41 ± 0.35
323.1 K, 11000 kPa, x2 = 0.7995	657.51 ± 0.36
323.1 K, 12000 kPa, x2 = 0.7995	658.59 ± 0.37
323.1 K, 13000 kPa, x2 = 0.7995	659.66 ± 0.38
323.1 K, 14000 kPa, x2 = 0.7995	660.72 ± 0.39
323.1 K, 15000 kPa, x2 = 0.7995	661.75 ± 0.4
323.1 K, 16000 kPa, x2 = 0.7995	662.76 ± 0.41
323.1 K, 17000 kPa, x2 = 0.7995	663.74 ± 0.42
323.1 K, 18000 kPa, x2 = 0.7995	664.69 ± 0.43
323.1 K, 19000 kPa, x2 = 0.7995	665.64 ± 0.44
323.1 K, 20000 kPa, x2 = 0.7995	666.56 ± 0.45
323.1 K, 21000 kPa, x2 = 0.7995	667.44 ± 0.46
323.1 K, 22000 kPa, x2 = 0.7995	668.32 ± 0.47
323.1 K, 23000 kPa, x2 = 0.7995	669.16 ± 0.48
323.1 K, 24000 kPa, x2 = 0.7995	669.96 ± 0.49
323.1 K, 25000 kPa, x2 = 0.7995	670.76 ± 0.5
332.95 K, 1000 kPa, x2 = 0.5749	649.41 ± 0.27
332.95 K, 2000 kPa, x2 = 0.5749	650.55 ± 0.28
332.95 K, 3000 kPa, x2 = 0.5749	651.69 ± 0.29
332.95 K, 4000 kPa, x2 = 0.5749	652.87 ± 0.29
332.95 K, 5000 kPa, x2 = 0.5749	654.06 ± 0.3
332.95 K, 6000 kPa, x2 = 0.5749	655.21 ± 0.31
332.95 K, 7000 kPa, x2 = 0.5749	656.35 ± 0.32
332.95 K, 8000 kPa, x2 = 0.5749	657.49 ± 0.33
332.95 K, 9000 kPa, x2 = 0.5749	658.63 ± 0.34
332.95 K, 10000 kPa, x2 = 0.5749	659.75 ± 0.35
332.95 K, 11000 kPa, x2 = 0.5749	660.86 ± 0.36
332.95 K, 12000 kPa, x2 = 0.5749	661.96 ± 0.37
332.95 K, 13000 kPa, x2 = 0.5749	663.04 ± 0.38
332.95 K, 14000 kPa, x2 = 0.5749	664.1 ± 0.38
332.95 K, 15000 kPa, x2 = 0.5749	665.14 ± 0.39
332.95 K, 16000 kPa, x2 = 0.5749	666.16 ± 0.4
332.95 K, 17000 kPa, x2 = 0.5749	667.18 ± 0.41
332.95 K, 18000 kPa, x2 = 0.5749	668.14 ± 0.42
332.95 K, 19000 kPa, x2 = 0.5749	669.09 ± 0.43
332.95 K, 20000 kPa, x2 = 0.5749	670.02 ± 0.44
332.95 K, 21000 kPa, x2 = 0.5749	670.93 ± 0.45
332.95 K, 22000 kPa, x2 = 0.5749	671.82 ± 0.46
332.95 K, 23000 kPa, x2 = 0.5749	672.7 ± 0.47
332.95 K, 24000 kPa, x2 = 0.5749	673.55 ± 0.48
332.95 K, 25000 kPa, x2 = 0.5749	674.35 ± 0.49
333.01 K, 1000 kPa, x2 = 0.9308	629.03 ± 0.28
333.01 K, 2000 kPa, x2 = 0.9308	630.32 ± 0.29
333.01 K, 3000 kPa, x2 = 0.9308	631.62 ± 0.3
333.01 K, 4000 kPa, x2 = 0.9308	632.91 ± 0.31
333.01 K, 5000 kPa, x2 = 0.9308	634.2 ± 0.31
333.01 K, 6000 kPa, x2 = 0.9308	635.48 ± 0.32
